Here are results for 27 compounds from patent publication US20260226034A1 (The Rockefeller University, priority 2023, published 2026).

This experiment deals with NSP14 (Severe acute respiratory syndrome coronavirus 2, UniProt P0DTD1). The experiment is described as follows: NSP14 MTase inhibition assay at 37° C. (MTase-Glo SAH detection). The following applies: 0.3 nM NSP14, 2.5 μM SAM, 2.5 μM GpppA RNA, read-out: Nsp14 Mtase Inh. IC50. Format: biochemical, SARS-CoV-2.

A word on the IC50: it is the concentration that inhibits the measured activity by half.

Molecules are shown by their SMILES. Read-outs that look alike come from different tables or passages of the source.

Consider `Cc1c(S(=O)(=O)c2ccc3[nH]ncc3c2)cc(C(=O)NCc2c(Cl)ccn(C)c2=O)n1C` [B.180], for which the concentration for half-maximal inhibition (IC50) (37° C.) was < 0.15 nM.

Turning to `Cc1c(S(=O)(=O)c2ccc3[nH]ncc3c2)cc(C(=O)NCc2ccccc2S(C)(=O)=O)n1C` [B.56], under “37° C.”, the half-maximal inhibitory concentration (IC50) was 2.9 nM.

Turning to `Cc1c(S(=O)(=O)c2ccc3[nH]ncc3c2)cc(C(=O)N[C@@H]2CCN(c3ccc(F)cc3)C2)n1C` [A.81], the IC50 (45 min at 37° C.) was found to be 0.58 nM.

`Cc1c(S(=O)(=O)c2ccc3c(c2)CNC3)cc(C(=O)NCc2cccc3cnn(C)c23)n1C` [B.10]: under “37° C.”, the IC50 was 113 nM.

With `Cc1c(S(=O)(=O)c2ccc3[nH]nc(F)c3c2)cc(C(=O)NCc2cncnc2N2CCC(F)(F)C2)n1C` [B.38], the half-inhibitory concentration (IC50) (37° C.) came to 0.56 nM.

For the compound `Cc1c(S(=O)(=O)c2ccc3[nH]ncc3c2)cc(C(=O)N[C@@H]2CCN(c3ccc(C(F)(F)F)cc3)C2)n1C` [A.123], for the setting “45 min at 37° C.”, the IC50 stood at 8.6 nM.

Turning to `Cc1c(S(=O)(=O)c2ccc3[nH]ncc3c2)cc(C(=O)NC2CCc3cc(F)c(F)cc32)n1C` (racemic) [B.92], the IC50 (37° C.) came out at 27 nM.

Regarding `Cc1c(S(=O)(=O)c2cccc(C#N)c2)cc(C(=O)NCc2c(Cl)cnn2C)n1C` [B.183], for the setting “37° C.”, the IC50 stood at 17 nM.

Consider `Cc1c(S(=O)(=NCCO)c2ccc3[nH]ncc3c2)cc(C(=O)N[C@@H]2CCN(c3ncc(F)cn3)C2)n1C` (stereo partly drawn) [A.102], for which, for the setting “45 min at 37° C.”, the IC50 is 0.46 nM.

As for `Cc1c(S(=O)(=O)c2ccc3[nH]ncc3c2)cc(C(=O)N[C@@H]2CCN(c3ccc(F)cc3C#N)C2)n1C` [A.82], the half-inhibitory concentration (IC50) (45 min at 37° C.) was 0.45 nM.

`Cc1c(S(=O)(=O)c2ccc3[nH]ncc3c2)cc(C(=O)N[C@@H]2CCN(c3ncccc3F)C2)n1C` [A.43]: the 50% inhibitory concentration (IC50) (45 min at 37° C.) was 0.42 nM.

Regarding `Cc1c(S(=O)(=O)c2ccc3[nH]ncc3c2)cc(C(=O)NCc2cccc3c2N(C)C(=O)C3)n1C` [B.13], the half-inhibitory concentration (IC50) (37° C.) amounted to 0.6 nM.

As to `Cc1c(S(=O)(=O)c2ccc3[nH]ncc3c2)cc(C(=O)NCc2c(F)cc[nH]c2=O)n1C` [B.113], the concentration for half-maximal inhibition (IC50) (37° C.) is 0.34 nM.

With `Cc1c(S(=O)(=O)c2ccc3[nH]ncc3c2)cc(C(=O)N[C@@H]2CCN(c3cc(C#N)ccn3)C2)n1C` [A.79], the IC50 (45 min at 37° C.) is 0.6 nM.

On to `Cc1c(S(=O)(=O)c2ccc3[nH]nc(F)c3c2)cc(C(=O)NCc2c[nH]c(=O)c3cccnc23)n1C` [B.175], for which the IC50 (37° C.) came to 3.3 nM.

Regarding `Cc1c(S(=O)(=O)c2cc(Cl)c3[nH]ncc3c2)cc(C(=O)NCc2c(F)ccc3cnn(C4CC4)c23)n1C` [B.79], for the setting “37° C.”, the 50% inhibitory concentration (IC50) was 0.17 nM.

For `Cc1c(S(=O)(=O)c2ccc3[nH]ncc3c2)cc(C(=O)NCc2c(F)cc(CCN(C)C)cc2F)n1C` [B.114], the IC50 (37° C.) was determined as 184 nM.

On to `Cc1c(S(=O)(=O)c2ccc3[nH]ncc3c2)cc(C(=O)NCc2[nH]c(=O)ccc2F)n1C` [B.189], for which, for the setting “37° C.”, the 50% inhibitory concentration (IC50) was 0.37 nM.

On to `Cc1c(S(=O)(=O)c2ccc3[nH]ncc3c2)cc(C(=O)NC(=O)c2ccccc2)n1C` [B.169], for which, where the note is “37° C.”, the half-maximal inhibitory concentration (IC50) is 3.2 nM.

As to `Cc1c(S(=O)(=O)c2ccc3[nH]ncc3c2)cc(C(=O)NCc2ccc(=O)[nH]c2)n1C` [B.104], the half-maximal inhibitory concentration (IC50) (37° C.) stood at 27 nM.

On to `Cc1cc(S(=O)(=O)c2cc(C(=O)NCc3c(F)ccc4cnn(C5CC5)c34)n(C)c2C)cc2cn[nH]c12` [B.28], for which the concentration for half-maximal inhibition (IC50) (37° C.) was 0.24 nM.

Turning to `Cc1c(S(=O)(=O)c2ccccc2)cc(C(=O)NCc2c(F)ccc3cnn(C4CC4)c23)n1C` [A.10], the 50% inhibitory concentration (IC50) (45 min at 37° C.) was 4.9 nM.

Consider `Cc1c(S(=O)(=O)c2ccc3[nH]ncc3c2)cc(C(=O)N[C@@H]2CCN(c3ccc(F)cn3)C2)n1C` [A.51], for which the IC50 (45 min at 37° C.) was < 0.15 nM.

Consider `Cc1c(S(=O)(=O)c2ccc3[nH]ncc3c2)cc(C(=O)N[C@@H]2CCN(c3cccc4c3cnn4C)C2)n1C` [A.61], for which the half-inhibitory concentration (IC50) (45 min at 37° C.) was 0.39 nM.

Take `Cc1c(S(=O)(=O)c2cc(Cl)c3[nH]ncc3c2)cc(C(=O)NCc2c(Cl)cnn2C)n1C` [B.184]: for the setting “37° C.”, the IC50 is < 0.15 nM.

With `Cc1c(S(=O)(=O)c2ccc3[nH]ncc3c2)cc(C(=O)N[C@@H]2CCN(c3cnn(C)c(=O)c3)C2)n1C` [A.111], the 50% inhibitory concentration (IC50) (45 min at 37° C.) is < 0.15 nM.

On to `Cc1c(S(=O)(=O)c2ccc3[nH]ncc3c2)cc(C(=O)NC2CCc3ccc(C(F)(F)F)cc32)n1C` (racemic) [B.72], for which the 50% inhibitory concentration (IC50) (37° C.) turned out to be 33 nM.
